The record followed here is article PMC9911596 (Nature Communications, 2023).

In test [1] the target is T1, Vtc1/Vtc3/Vtc4 complex (VTC complex) (Saccharomyces cerevisiae, UniProt P47075+Q02725, Q02725:K333A/Q02725:K362A/Q02725:K364A/Q02725:Y380F).
T1 construct: full-length subunits co-expressed in Expi293F; Vtc1 C-terminal HA, Vtc3 N-terminal 3xFlag, Vtc4 C-terminal 2xStrep; detergent-purified; 3:1:1 pentamer; with Vacuolar transporter chaperone complex subunit 1
T1 sequence (P47075 1-721): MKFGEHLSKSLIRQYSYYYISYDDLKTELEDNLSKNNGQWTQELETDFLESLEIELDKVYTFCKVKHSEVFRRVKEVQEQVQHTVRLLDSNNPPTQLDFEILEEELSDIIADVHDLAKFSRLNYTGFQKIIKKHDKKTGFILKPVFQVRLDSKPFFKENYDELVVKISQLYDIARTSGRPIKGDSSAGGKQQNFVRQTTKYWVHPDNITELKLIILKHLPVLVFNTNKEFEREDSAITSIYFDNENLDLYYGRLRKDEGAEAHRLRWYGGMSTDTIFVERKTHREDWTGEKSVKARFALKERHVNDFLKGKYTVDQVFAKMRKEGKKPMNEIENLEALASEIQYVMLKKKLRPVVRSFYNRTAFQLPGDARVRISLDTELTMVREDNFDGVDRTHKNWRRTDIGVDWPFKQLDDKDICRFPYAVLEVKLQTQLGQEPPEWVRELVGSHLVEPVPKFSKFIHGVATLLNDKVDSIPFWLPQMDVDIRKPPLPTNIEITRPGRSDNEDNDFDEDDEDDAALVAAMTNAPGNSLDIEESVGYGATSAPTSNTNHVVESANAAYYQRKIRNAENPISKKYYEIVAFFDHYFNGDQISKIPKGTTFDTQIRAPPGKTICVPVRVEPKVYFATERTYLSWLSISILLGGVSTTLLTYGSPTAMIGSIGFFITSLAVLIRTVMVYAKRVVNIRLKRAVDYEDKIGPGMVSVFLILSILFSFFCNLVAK
T1 sequence (Q02725 1-835 K333A/K362A/K364A/Y380F): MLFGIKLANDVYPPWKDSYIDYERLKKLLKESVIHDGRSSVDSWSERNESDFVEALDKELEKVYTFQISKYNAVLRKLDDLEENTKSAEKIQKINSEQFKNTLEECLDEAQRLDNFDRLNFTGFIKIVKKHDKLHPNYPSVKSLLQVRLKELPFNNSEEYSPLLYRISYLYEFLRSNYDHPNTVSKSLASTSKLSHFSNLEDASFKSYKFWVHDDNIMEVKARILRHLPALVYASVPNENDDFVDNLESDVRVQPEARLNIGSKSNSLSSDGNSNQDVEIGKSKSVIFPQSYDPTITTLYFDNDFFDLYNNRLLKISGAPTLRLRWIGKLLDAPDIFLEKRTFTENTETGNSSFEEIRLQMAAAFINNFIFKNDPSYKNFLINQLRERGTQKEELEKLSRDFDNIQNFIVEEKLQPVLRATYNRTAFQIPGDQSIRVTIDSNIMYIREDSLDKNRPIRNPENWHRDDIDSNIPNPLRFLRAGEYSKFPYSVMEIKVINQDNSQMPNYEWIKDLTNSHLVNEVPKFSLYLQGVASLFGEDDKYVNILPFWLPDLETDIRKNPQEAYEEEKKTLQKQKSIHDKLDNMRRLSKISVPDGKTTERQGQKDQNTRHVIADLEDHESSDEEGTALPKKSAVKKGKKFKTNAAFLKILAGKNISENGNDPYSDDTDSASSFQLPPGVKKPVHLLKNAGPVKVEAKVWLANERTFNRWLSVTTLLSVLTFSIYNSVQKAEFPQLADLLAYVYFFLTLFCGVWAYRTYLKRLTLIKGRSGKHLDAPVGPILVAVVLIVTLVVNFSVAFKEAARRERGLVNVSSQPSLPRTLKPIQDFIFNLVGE
T1 sequence (P40046 2-129 partner): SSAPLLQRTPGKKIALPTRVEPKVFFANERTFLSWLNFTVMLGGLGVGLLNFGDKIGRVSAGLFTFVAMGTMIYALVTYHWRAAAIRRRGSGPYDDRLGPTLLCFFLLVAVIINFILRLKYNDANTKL
Description: polyP synthesis, TBE-PAGE. The test is classed as biochemical. Conditions: activator; 15 mM ATP, 10 mM MgCl2, 1 mM MnCl2, 0.5 mM pyrophosphate, 27 °C; TTM cleft (second site) mutant.

Test [2] concerns the target T2, Vtc1/Vtc3/Vtc4 complex (VTC complex) (Saccharomyces cerevisiae, UniProt P47075+Q02725, Q02725:Y22F/Q02725:K26A/Q02725:K130A).
T2 construct: full-length subunits co-expressed in Expi293F; Vtc1 C-terminal HA, Vtc3 N-terminal 3xFlag, Vtc4 C-terminal 2xStrep; detergent-purified; 3:1:1 pentamer; with Vacuolar transporter chaperone complex subunit 1
T2 sequence (P47075 1-721): T1 sequence (P47075 1-721)
T2 sequence (Q02725 1-835 Y22F/K26A/K130A): T1 sequence (Q02725 1-835 K333A/K362A/K364A/Y380F) with Y22F, K26A, K130A, A333K, A362K, A364K, F380Y
T2 sequence (P40046 2-129 partner): T1 sequence (P40046 2-129 partner)
As to the kind of experiment: polyP synthesis, TBE-PAGE. The class given is biochemical. The following applies: activator; 15 mM ATP, 10 mM MgCl2, 1 mM MnCl2, 0.5 mM pyrophosphate, 27 °C, 4 h; SPX PBC mutant.

The structures appear in SMILES notation. Positions count from the first letter of the chain named.

`O=P(O)(O)O[C@H]1[C@H](OP(=O)(O)O)[C@@H](OP(=O)(O)O)[C@H](OP(=O)(O)O)[C@@H](OP(=O)(O)O)[C@H]1OP(=O)(O)O` [InsP6]: the “polyP synthesis, TBE-PAGE” value in test [1] is given as “had little impact on InsP6-stimulated polyP synthesis by VTC complex”; in test [2] it was “residues had little effect on polyP synthesis”.
